According to Sander's compilation of Henry's law constants (doi:10.1136/oem.51.1.68):

Test: Henry solubility constant Hcp at 310 K (mol/(m3 Pa))
Conditions: reference: Kaneko et al. (1994)

## CCCO [1-propanol]
  Henry solubility constant Hcp at 310 K: 0.72

## CCOC(C)=O [ethyl ethanoate]
  Henry solubility constant Hcp at 310 K: 0.028

## CC(C)CO [2-methyl-1-propanol]
  Henry solubility constant Hcp at 310 K: 0.44

## CCCOC(C)=O [propyl ethanoate]
  Henry solubility constant Hcp at 310 K: 0.021

## CCCCOC(C)=O [butyl ethanoate]
  Henry solubility constant Hcp at 310 K: 0.013

## CCCCCO [1-pentanol]
  Henry solubility constant Hcp at 310 K: 0.42

## CC(=O)OCC(C)C [2-methylpropyl ethanoate]
  Henry solubility constant Hcp at 310 K: 0.01

## COC(C)=O [methyl ethanoate]
  Henry solubility constant Hcp at 310 K: 0.042

## CC(C)O [2-propanol]
  Henry solubility constant Hcp at 310 K: 0.58

## CCCCCOC(C)=O [pentyl ethanoate]
  Henry solubility constant Hcp at 310 K: 0.0093

## CC(=O)OCCC(C)C [3-methylbutyl ethanoate]
  Henry solubility constant Hcp at 310 K: 0.0088

## CCC(C)CO (centres undefined) [2-methyl-1-butanol]
  Henry solubility constant Hcp at 310 K: 0.33

## CCO [ethanol]
  Henry solubility constant Hcp at 310 K: 0.83

## CC(=O)OC(C)C [2-propyl ethanoate]
  Henry solubility constant Hcp at 310 K: 0.013
